Results published in the NIST ThermoML archive (doi:10.1021/je049807n).

Assays:
[1] = xn = mol fraction of the nth substance listed; conditions: 298.15 K; for surface tension liquid-gas: Pendant drop shape; for mass density: 101.3 kPa, Liquid
[2] = for surface tension liquid-gas: Pendant drop shape; for mass density: 101.33 kPa, Liquid

Cc1cc(C)cc(C)c1 [1,3,5-trimethylbenzene] + CC(C)(C)O
[1]
Conditions | mass density [kg/m3] | surface tension liquid-gas [mN/m]
x2 = 0.0502 | 857.2 | –
x2 = 0.1015 | 853.43 | 27.18
x2 = 0.1482 | 850.08 | –
x2 = 0.2007 | 846.28 | 26.24
x2 = 0.2509 | 842.63 | –
x2 = 0.2995 | 839.02 | 25.35
x2 = 0.3484 | 835.31 | –
x2 = 0.3995 | 831.37 | 24.51
x2 = 0.449 | 827.48 | –
x2 = 0.4992 | 823.4 | 23.75
x2 = 0.5483 | 819.43 | –
x2 = 0.6005 | 815.1 | 23.02
x2 = 0.6502 | 810.91 | –
x2 = 0.6987 | 806.81 | 22.32
x2 = 0.75 | 802.48 | –
x2 = 0.7995 | 798.32 | 21.61
x2 = 0.8501 | 793.99 | –
x2 = 0.9002 | 789.58 | 20.86
x2 = 0.9509 | 785.25 | –

Cc1cc(C)cc(C)c1 [1,3,5-trimethylbenzene] + CC(C)CO
[1]
Conditions | mass density [kg/m3] | surface tension liquid-gas [mN/m]
x2 = 0.0512 | 858.13 | –
x2 = 0.1028 | 855.39 | 27.65
x2 = 0.1517 | 852.81 | –
x2 = 0.1994 | 850.26 | 27.21
x2 = 0.2514 | 847.49 | –
x2 = 0.3006 | 844.78 | 26.67
x2 = 0.3529 | 841.86 | –
x2 = 0.4019 | 839.03 | 26.09
x2 = 0.4494 | 836.25 | –
x2 = 0.4995 | 833.24 | 25.51
x2 = 0.548 | 830.3 | –
x2 = 0.6002 | 827.02 | 24.88
x2 = 0.6495 | 823.78 | –
x2 = 0.699 | 820.47 | 24.25
x2 = 0.7501 | 816.96 | –
x2 = 0.7998 | 813.38 | 23.61
x2 = 0.8504 | 809.65 | –
x2 = 0.9006 | 805.81 | 22.97
x2 = 0.9485 | 802.06 | –

Cc1cc(C)cc(C)c1 [1,3,5-trimethylbenzene] + CCC(C)O
[1]
Conditions | mass density [kg/m3] | surface tension liquid-gas [mN/m]
x2 = 0.0508 | 858.12 | –
x2 = 0.101 | 855.38 | 27.77
x2 = 0.1511 | 852.75 | –
x2 = 0.2007 | 850.14 | 27.36
x2 = 0.25 | 847.61 | –
x2 = 0.2986 | 845.03 | 26.94
x2 = 0.3488 | 842.36 | –
x2 = 0.4007 | 839.55 | 26.47
x2 = 0.4495 | 836.88 | –
x2 = 0.5017 | 833.96 | 25.99
x2 = 0.5484 | 831.33 | –
x2 = 0.6004 | 828.33 | 25.49
x2 = 0.6508 | 825.34 | –
x2 = 0.6991 | 822.4 | 24.98
x2 = 0.7496 | 819.25 | –
x2 = 0.8009 | 816.01 | 24.45
x2 = 0.8504 | 812.75 | –
x2 = 0.9002 | 809.42 | 23.94
x2 = 0.9505 | 805.99 | –

Cc1cc(C)cc(C)c1 [1,3,5-trimethylbenzene] + CCCCO
[1]
Conditions | mass density [kg/m3] | surface tension liquid-gas [mN/m]
x2 = 0.0493 | 858.72 | –
x2 = 0.1006 | 856.4 | 27.92
x2 = 0.1512 | 854.14 | –
x2 = 0.2011 | 851.93 | 27.65
x2 = 0.2514 | 849.67 | –
x2 = 0.3002 | 847.43 | 27.33
x2 = 0.3487 | 845.16 | –
x2 = 0.4003 | 842.68 | 26.91
x2 = 0.4535 | 840.04 | –
x2 = 0.5001 | 837.66 | 26.46
x2 = 0.5484 | 835.11 | –
x2 = 0.6005 | 832.26 | 25.99
x2 = 0.65 | 829.43 | –
x2 = 0.6993 | 826.54 | 25.53
x2 = 0.7497 | 823.44 | –
x2 = 0.7999 | 820.23 | 25.05
x2 = 0.85 | 816.86 | –
x2 = 0.901 | 813.3 | 24.58
x2 = 0.9506 | 809.67 | –

CC(C)CO [2-methyl-1-propanol]
[2], 298.15 K
Conditions | mass density [kg/m3] | surface tension liquid-gas [mN/m]
– | 797.83 | 22.3

CC(C)(C)O [2-methylpropan-2-ol]
[2], 298.15 K
Conditions | mass density [kg/m3] | surface tension liquid-gas [mN/m]
– | 780.85 | 20.13

CCCCO [butan-1-ol]
[2], 298.15 K
Conditions | mass density [kg/m3] | surface tension liquid-gas [mN/m]
– | 805.8 | 24.18

CCC(C)O (stereo unspecified) [butan-2-ol]
[2]
Conditions | mass density [kg/m3] | surface tension liquid-gas [mN/m]
298.15 K | 802.34 | 23.46
303.15 K | – | 22.14
